Assays:
[1] = biological target: T1, HiBit-BRG1 fusion protein (Homo sapiens, UniProt P51532); assay: HiBiT-BRG1 cell-based degradation assay (Nano-Glo HiBiT Lytic Detection); conditions: stable HeLa cell line expressing HiBit-BRG1 and LgBit, 24 h incubation; for Dmax: top dose 30 μM, read-out: BRG1 HiBit Degradation Maximum (%); for DC50: read-out: BRMG1 HiBit Degradation IC50
T1 construct: expressed in transfected cells
In short: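 Degradation was scored from HiBiT lytic luminescence, scaled between DMSO-treated wells and wells given 2 μM of a standard BRM/BRG1 degrader. Cells were a stable HeLa HiBiT-BRG1/LgBiT line dosed for 24 h, ten concentrations in 3-fold steps from 30 μM, in duplicate.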

HiBit-BRM fusion protein = biological target: T2, HiBit-BRM fusion protein (Homo sapiens, UniProt P51531); assay: HiBiT-BRM cell-based degradation assay (Nano-Glo HiBiT Lytic Detection); conditions: stable HeLa cell line expressing HiBiT-BRM, 24 h incubation; for BRM HiBit Degradation Maximum (%): top dose 30 μM; for DC50: read-out: BRM HiBit Degradation IC50
T2 construct: expressed in transfected cells
In short: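 Residual HiBiT-BRM in a stable HeLa line was measured by Nano-Glo lytic luminescence after 24 h compound exposure (top final dose 30 μM, 3-fold, 10 points, duplicate). Values are % degradation, scaled between DMSO-treated cells and cells given 2 μM of a known BRM/BRG1 degrader.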

T2 sequence (P51531 whole entry, the tested form may be a part): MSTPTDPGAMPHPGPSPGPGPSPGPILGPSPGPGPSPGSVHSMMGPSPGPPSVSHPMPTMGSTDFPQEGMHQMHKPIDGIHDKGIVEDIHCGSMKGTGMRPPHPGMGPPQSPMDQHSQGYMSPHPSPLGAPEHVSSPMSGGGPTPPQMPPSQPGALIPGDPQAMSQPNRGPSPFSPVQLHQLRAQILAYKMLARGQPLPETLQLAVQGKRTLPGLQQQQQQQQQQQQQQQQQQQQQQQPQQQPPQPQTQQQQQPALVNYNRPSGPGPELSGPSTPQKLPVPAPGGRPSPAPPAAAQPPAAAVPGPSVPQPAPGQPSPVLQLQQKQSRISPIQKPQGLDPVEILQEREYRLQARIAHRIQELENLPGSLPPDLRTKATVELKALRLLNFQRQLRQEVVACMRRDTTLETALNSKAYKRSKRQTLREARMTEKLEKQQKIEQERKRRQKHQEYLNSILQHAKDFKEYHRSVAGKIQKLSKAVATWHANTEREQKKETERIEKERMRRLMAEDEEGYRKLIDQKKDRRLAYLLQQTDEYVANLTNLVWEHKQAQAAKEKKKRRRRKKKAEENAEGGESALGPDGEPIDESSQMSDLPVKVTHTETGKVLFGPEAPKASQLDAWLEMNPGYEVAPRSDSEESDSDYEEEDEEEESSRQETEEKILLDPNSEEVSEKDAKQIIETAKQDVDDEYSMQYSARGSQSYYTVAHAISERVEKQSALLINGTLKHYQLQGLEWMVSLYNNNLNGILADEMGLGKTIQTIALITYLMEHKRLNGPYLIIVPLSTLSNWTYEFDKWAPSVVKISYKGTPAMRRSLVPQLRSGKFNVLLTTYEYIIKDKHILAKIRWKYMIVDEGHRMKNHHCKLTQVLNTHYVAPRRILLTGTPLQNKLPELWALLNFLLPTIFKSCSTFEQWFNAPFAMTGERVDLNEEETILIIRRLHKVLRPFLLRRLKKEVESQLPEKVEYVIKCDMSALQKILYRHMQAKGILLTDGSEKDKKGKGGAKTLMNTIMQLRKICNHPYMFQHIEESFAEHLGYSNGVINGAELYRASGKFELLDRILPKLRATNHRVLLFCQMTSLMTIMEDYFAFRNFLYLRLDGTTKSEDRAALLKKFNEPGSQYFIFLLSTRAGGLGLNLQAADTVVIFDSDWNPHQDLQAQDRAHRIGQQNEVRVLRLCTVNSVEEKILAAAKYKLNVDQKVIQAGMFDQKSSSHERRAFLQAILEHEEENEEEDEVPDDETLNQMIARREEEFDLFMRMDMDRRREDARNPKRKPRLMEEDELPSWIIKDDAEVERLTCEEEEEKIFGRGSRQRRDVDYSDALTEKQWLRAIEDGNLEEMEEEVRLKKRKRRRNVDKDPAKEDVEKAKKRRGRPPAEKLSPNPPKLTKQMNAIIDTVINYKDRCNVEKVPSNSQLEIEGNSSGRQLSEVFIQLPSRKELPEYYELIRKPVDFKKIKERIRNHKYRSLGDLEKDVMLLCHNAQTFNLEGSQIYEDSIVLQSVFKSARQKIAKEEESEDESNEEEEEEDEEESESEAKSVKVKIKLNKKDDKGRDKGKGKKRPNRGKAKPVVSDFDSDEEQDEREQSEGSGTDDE
T1 sequence (P51532 whole entry, the tested form may be a part): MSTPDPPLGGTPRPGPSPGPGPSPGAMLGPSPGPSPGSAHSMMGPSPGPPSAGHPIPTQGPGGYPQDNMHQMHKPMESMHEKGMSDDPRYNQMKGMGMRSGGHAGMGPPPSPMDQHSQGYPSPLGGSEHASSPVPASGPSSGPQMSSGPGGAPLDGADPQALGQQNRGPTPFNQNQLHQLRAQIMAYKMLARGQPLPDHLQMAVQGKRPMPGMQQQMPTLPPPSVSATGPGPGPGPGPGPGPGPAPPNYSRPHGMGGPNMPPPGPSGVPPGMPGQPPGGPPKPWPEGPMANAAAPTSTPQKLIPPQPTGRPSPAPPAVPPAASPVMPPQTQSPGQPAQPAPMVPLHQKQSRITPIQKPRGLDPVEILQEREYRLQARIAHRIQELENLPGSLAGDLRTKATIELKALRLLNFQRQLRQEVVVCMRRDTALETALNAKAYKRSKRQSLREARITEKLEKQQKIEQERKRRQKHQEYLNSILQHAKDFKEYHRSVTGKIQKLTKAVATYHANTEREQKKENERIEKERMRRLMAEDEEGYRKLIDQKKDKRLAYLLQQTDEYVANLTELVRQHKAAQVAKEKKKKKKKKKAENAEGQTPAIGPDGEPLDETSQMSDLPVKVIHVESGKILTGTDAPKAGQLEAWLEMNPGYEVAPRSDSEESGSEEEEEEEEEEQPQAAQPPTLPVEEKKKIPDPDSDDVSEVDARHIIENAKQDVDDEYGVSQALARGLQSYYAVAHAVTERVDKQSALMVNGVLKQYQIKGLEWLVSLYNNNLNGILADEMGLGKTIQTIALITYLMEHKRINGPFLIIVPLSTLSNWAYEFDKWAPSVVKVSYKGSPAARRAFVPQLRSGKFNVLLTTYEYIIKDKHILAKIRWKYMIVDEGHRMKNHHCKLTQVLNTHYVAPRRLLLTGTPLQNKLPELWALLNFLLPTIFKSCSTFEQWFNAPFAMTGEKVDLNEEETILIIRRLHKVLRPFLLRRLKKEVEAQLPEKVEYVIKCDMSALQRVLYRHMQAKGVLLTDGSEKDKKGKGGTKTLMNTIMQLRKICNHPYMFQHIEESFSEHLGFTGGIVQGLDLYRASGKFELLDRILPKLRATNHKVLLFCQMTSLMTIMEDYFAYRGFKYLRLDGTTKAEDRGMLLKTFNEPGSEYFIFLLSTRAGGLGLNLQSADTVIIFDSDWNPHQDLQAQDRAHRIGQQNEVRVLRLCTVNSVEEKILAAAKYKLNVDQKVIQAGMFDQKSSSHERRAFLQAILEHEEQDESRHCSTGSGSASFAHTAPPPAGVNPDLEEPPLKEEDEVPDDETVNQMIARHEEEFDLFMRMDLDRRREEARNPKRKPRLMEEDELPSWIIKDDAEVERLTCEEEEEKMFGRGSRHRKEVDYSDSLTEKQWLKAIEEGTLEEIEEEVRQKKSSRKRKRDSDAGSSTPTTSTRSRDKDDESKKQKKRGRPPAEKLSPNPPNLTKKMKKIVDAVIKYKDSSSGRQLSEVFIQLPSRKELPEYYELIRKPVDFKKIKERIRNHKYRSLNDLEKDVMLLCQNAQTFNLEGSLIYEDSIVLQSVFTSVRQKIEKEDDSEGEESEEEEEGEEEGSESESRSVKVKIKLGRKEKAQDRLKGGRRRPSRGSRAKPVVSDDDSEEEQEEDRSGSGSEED

Compound	Dmax [1]	DC50 [1]	BRM HiBit Degradation Maximum (%) (HiBit-BRM fusion protein)	DC50 (HiBit-BRM fusion protein)
Cc1ncsc1-c1ccc([C@H](C)NC(=O)[C@@H]2C[C@@H](O)CN2C(=O)[C@@H](c2cc(OCCNC(=O)[C@@H]3CCc4sc5nnc(-c6ccccc6O)cc5c4C3)no2)C(C)C)cc1 [Compound 46, (R)-N-(2-((5-((R)-1-((2S,4R)-4-hydroxy-2-(((S)-1-(4-(4-methylthiazol-5-yl)phenyl)ethyl)carbamoyl)pyrrolidin-1-yl)-3-methyl-1-oxobutan-2-yl)isoxazol-3-yl)oxy)ethyl)-3-(2-hydroxyphenyl)-5,6,7,8-tetrahydrobenzo[4,5]thieno[2,3-c]pyridazine-6-carboxamide]	< 50%	≥ 1 µM	C (“C” indicates maximum degradation < 50%)	≥ 1 µM
Cc1ncsc1-c1ccc([C@H](C)NC(=O)[C@@H]2C[C@@H](O)CN2C(=O)[C@@H](c2cc(C3CCN(C(=O)[C@H]4CCc5sc6nnc(-c7ccccc7O)cc6c5C4)CC3)no2)C(C)C)cc1 [Compound 47, (2S,4R)-4-hydroxy-1-((R)-2-(3-(1-((S)-3-(2-hydroxyphenyl)-5,6,7,8-tetrahydrobenzo[4,5]thieno[2,3-c]pyridazine-6-carbonyl)piperidin-4-yl)isoxazol-5-yl)-3-methylbutanoyl)-N-((S)-1-(4-(4-methylthiazol-5-yl)phenyl)ethyl)pyrrolidine-2-carboxamide]	< 50%	≥ 1 µM	A (“A” indicates maximum degradation ≥ 75%)	≥ 0.1 µM
Cc1ncsc1-c1ccc([C@H](C)NC(=O)[C@@H]2C[C@@H](O)CN2C(=O)[C@@H](c2cc(C3CCN(C(=O)[C@@H]4CCc5sc6nnc(-c7ccccc7O)cc6c5C4)CC3)no2)C(C)C)cc1 [Compound 48, (2S,4R)-4-hydroxy-1-((R)-2-(3-(1-((R)-3-(2-hydroxyphenyl)-5,6,7,8-tetrahydrobenzo[4,5]thieno[2,3-c]pyridazine-6-carbonyl)piperidin-4-yl)isoxazol-5-yl)-3-methylbutanoyl)-N-((S)-1-(4-(4-methylthiazol-5-yl)phenyl)ethyl)pyrrolidine-2-carboxamide]	< 50%	≥ 1 µM	C (“C” indicates maximum degradation < 50%)	≥ 1 µM
Cc1ncsc1-c1ccc([C@H](C)NC(=O)[C@@H]2C[C@@H](O)CN2C(=O)[C@@H](c2cc(OCCN3CCN(c4cc5nnc(-c6ccccc6O)cc5s4)CC3)no2)C(C)C)cc1 [Compound 49, (2S,4R)-4-hydroxy-1-((R)-2-(3-(2-(4-(3-(2-hydroxyphenyl)thieno[3,2-c]pyridazin-6-yl)piperazin-1-yl)ethoxy)isoxazol-5-yl)-3-methylbutanoyl)-N-((S)-1-(4-(4-methylthiazol-5-yl)phenyl)ethyl)pyrrolidine-2-carboxamide]	≥ 75%	≥ 0.01 µM	A (“A” indicates maximum degradation ≥ 75%)	< 0.01 µM
Cc1ncsc1-c1ccc([C@H](C)NC(=O)[C@@H]2C[C@@H](O)CN2C(=O)[C@@H](NC(=O)[C@H]2CC[C@@H](c3sc4nnc(-c5ccccc5O)cc4c3C)CC2)C(C)(C)C)cc1 [Compound 50, (2S,4R)-4-hydroxy-1-((S)-2-((1s,4R)-4-(3-(2-hydroxyphenyl)-5-methylthieno[2,3-c]pyridazin-6-yl)cyclohexane-1-carboxamido)-3,3-dimethylbutanoyl)-N-((S)-1-(4-(4-methylthiazol-5-yl)phenyl)ethyl)pyrrolidine-2-carboxamide]	< 50%	≥ 1 µM	C (“C” indicates maximum degradation < 50%)	≥ 1 µM
Cc1ncsc1-c1ccc([C@H](C)NC(=O)[C@@H]2C[C@@H](O)CN2C(=O)[C@@H](NC(=O)[C@H]2CC[C@H](c3sc4nnc(-c5ccccc5O)cc4c3C)CC2)C(C)(C)C)cc1 [Compound 51, (2S,4R)-4-hydroxy-1-((S)-2-((1r,4S)-4-(3-(2-hydroxyphenyl)-5-methylthieno[2,3-c]pyridazin-6-yl)cyclohexane-1-carboxamido)-3,3-dimethylbutanoyl)-N-((S)-1-(4-(4-methylthiazol-5-yl)phenyl)ethyl)pyrrolidine-2-carboxamide]	< 50%	≥ 1 µM	C (“C” indicates maximum degradation < 50%)	≥ 1 µM
Cc1ncsc1-c1ccc([C@H](C)NC(=O)[C@@H]2C[C@@H](O)CN2C(=O)[C@@H](c2cc(N3CCN(C(=O)[C@H]4CCc5sc6nnc(-c7ccccc7O)cc6c5C4)CC3)no2)C(C)C)cc1 [Compound 52, (2S,4R)-4-hydroxy-1-((R)-2-(3-(4-((S)-3-(2-hydroxyphenyl)-5,6,7,8-tetrahydrobenzo[4,5]thieno[2,3-c]pyridazine-6-carbonyl)piperazin-1-yl)isoxazol-5-yl)-3-methylbutanoyl)-N-((S)-1-(4-(4-methylthiazol-5-yl)phenyl)ethyl)pyrrolidine-2-carboxamide]	< 50%	≥ 1 µM	C (“C” indicates maximum degradation < 50%)	≥ 1 µM
Cc1ncsc1-c1ccc([C@H](C)NC(=O)[C@@H]2C[C@@H](O)CN2C(=O)[C@@H](c2cc(OCCN3CCC(O)(c4sc5nnc(-c6ccccc6O)cc5c4C)CC3)no2)C(C)C)cc1 [Compound 54, (2S,4R)-4-hydroxy-1-((R)-2-(3-(2-(4-hydroxy-4-(3-(2-hydroxyphenyl)-5-methylthieno[2,3-c]pyridazin-6-yl)piperidin-1-yl)ethoxy)isoxazol-5-yl)-3-methylbutanoyl)-N-((S)-1-(4-(4-methylthiazol-5-yl)phenyl)ethyl)pyrrolidine-2-carboxamide]	< 50%	≥ 1 µM	A (“A” indicates maximum degradation ≥ 75%)	≥ 0.01 µM
Cc1cc([C@H](C(=O)N2C[C@H](O)C[C@H]2C(=O)NCc2ccc(-c3scnc3C)cc2OCCCN2CCC(c3sc4nnc(-c5ccccc5O)cc4c3C)CC2)C(C)C)on1 [Compound 57, (2S,4R)-4-hydroxy-N-(2-(3-(4-(3-(2-hydroxyphenyl)-5-methylthieno[2,3-c]pyridazin-6-yl)piperidin-1-yl)propoxy)-4-(4-methylthiazol-5-yl)benzyl)-1-((R)-3-methyl-2-(3-methylisoxazol-5-yl)butanoyl)pyrrolidine-2-carboxamide]	< 50%	≥ 1 µM	B (“B” indicates maximum degradation ≥ 50%)	≥ 0.01 µM
Cc1ncsc1-c1ccc([C@H](C)NC(=O)[C@@H]2C[C@@H](O)CN2C(=O)[C@@H](c2cc(OCCN3C[C@H]4C[C@@H]3C[C@@H]4c3sc4nnc(-c5ccccc5O)cc4c3C)no2)C(C)C)cc1 [Compound 58, (2S,4R)-4-hydroxy-1-[(2R)-2-(3-{2-[(1R,4S,5S)-5-[3-(2-hydroxyphenyl)-5-methylthieno[2,3-c]pyridazin-6-yl]-2-azabicyclo[2.2.1]heptan-2-yl]ethoxy}-1,2-oxazol-5-yl)-3-methylbutanoyl]-N-[(1S)-1-[4-(4-methyl-1,3-thiazol-5-yl)phenyl]ethyl]pyrrolidine-2-carboxamide]	< 50%	≥ 1 µM	A (“A” indicates maximum degradation ≥ 75%)	≥ 0.01 µM

From US20240376121A1, “COMPOUNDS AND USES THEREOF” (Foghorn Therapeutics Inc., priority 2021, published 2024)
